From the NIST ThermoML archive (doi:10.1021/acs.jced.8b01095)

Assay: xn = mol fraction of the nth substance listed
Details: Liquid; for viscosity: 2 kPa, Falling or rolling sphere viscometry; for speed of sound / mass density: 100 kPa; for speed of sound: Single path-length method; for mass density: Vibrating tube method

CNc1ccccc1 [N-methylaniline] + CCCCn1cc[n+](C)c1.F[P-](F)(F)(F)(F)F
Details | mass density [kg/m3] | speed of sound [m/s] | viscosity [mPa·s]
298.15 K, x2 = 0 | 982.7 | 1564.5 | 1.94
298.15 K, x2 = 0.1076 | 1064.1 | 1558.7 | 5.42
298.15 K, x2 = 0.2146 | 1128.52 | 1549.8 | 11.47
298.15 K, x2 = 0.3053 | 1174.31 | 1538.2 | 22.49
298.15 K, x2 = 0.3985 | 1214.23 | 1516.1 | 37.19
298.15 K, x2 = 0.4805 | 1243.22 | 1497.1 | 53.52
298.15 K, x2 = 0.5766 | 1272.38 | 1481.9 | 71.45
298.15 K, x2 = 0.6793 | 1299.48 | 1468.8 | 95.21
298.15 K, x2 = 0.7871 | 1325.04 | 1457.9 | 126.78
298.15 K, x2 = 0.9009 | 1348.44 | 1447.2 | 187.23
303.15 K, x2 = 0 | 978.59 | 1546.1 | 1.73
303.15 K, x2 = 0.1076 | 1060.11 | 1542.2 | 4.31
303.15 K, x2 = 0.2146 | 1124.54 | 1534.3 | 9.24
303.15 K, x2 = 0.3053 | 1170.33 | 1523.4 | 16.65
303.15 K, x2 = 0.3985 | 1210.27 | 1502.3 | 27.2
303.15 K, x2 = 0.4805 | 1239.24 | 1484.1 | 39.53
303.15 K, x2 = 0.5766 | 1268.37 | 1469.4 | 53.54
303.15 K, x2 = 0.6793 | 1295.43 | 1456.7 | 74.21
303.15 K, x2 = 0.7871 | 1320.94 | 1445.9 | 96.09
303.15 K, x2 = 0.9009 | 1344.33 | 1435.4 | 140.54
308.15 K, x2 = 0 | 974.47 | 1528.3 | 1.55
308.15 K, x2 = 0.1076 | 1056.11 | 1525.9 | 3.52
308.15 K, x2 = 0.2146 | 1120.57 | 1518.9 | 7.54
308.15 K, x2 = 0.3053 | 1166.34 | 1508.8 | 12.57
308.15 K, x2 = 0.3985 | 1206.32 | 1488.9 | 20.33
308.15 K, x2 = 0.4805 | 1235.26 | 1471.1 | 29.79
308.15 K, x2 = 0.5766 | 1264.35 | 1456.7 | 40.88
308.15 K, x2 = 0.6793 | 1291.38 | 1444.4 | 53.97
308.15 K, x2 = 0.7871 | 1316.84 | 1433.9 | 72.45
308.15 K, x2 = 0.9009 | 1340.21 | 1423.5 | 107.54
313.15 K, x2 = 0 | 970.36 | 1511.5 | 1.4
313.15 K, x2 = 0.1076 | 1052.12 | 1506.7 | 2.95
313.15 K, x2 = 0.2146 | 1116.59 | 1500.8 | 6.01
313.15 K, x2 = 0.3053 | 1162.35 | 1492.6 | 9.66
313.15 K, x2 = 0.3985 | 1202.36 | 1475.5 | 15.49
313.15 K, x2 = 0.4805 | 1231.27 | 1458 | 22.87
313.15 K, x2 = 0.5766 | 1260.34 | 1444.2 | 31.76
313.15 K, x2 = 0.6793 | 1287.33 | 1432.3 | 42.71
313.15 K, x2 = 0.7871 | 1312.75 | 1422.2 | 57.32
313.15 K, x2 = 0.9009 | 1336.1 | 1411.9 | 83.73
318.15 K, x2 = 0 | 966.24 | 1492.8 | 1.27
318.15 K, x2 = 0.1076 | 1048.13 | 1491.1 | 2.5
318.15 K, x2 = 0.2146 | 1112.61 | 1488.2 | 5
318.15 K, x2 = 0.3053 | 1158.36 | 1479.8 | 7.84
318.15 K, x2 = 0.3985 | 1198.4 | 1462.1 | 12.02
318.15 K, x2 = 0.4805 | 1227.29 | 1445.1 | 17.73
318.15 K, x2 = 0.5766 | 1256.33 | 1431.8 | 25.05
318.15 K, x2 = 0.6793 | 1283.28 | 1420.3 | 34.26
318.15 K, x2 = 0.7871 | 1308.65 | 1410.4 | 46.02
318.15 K, x2 = 0.9009 | 1331.99 | 1400.5 | 66.23
323.15 K, x2 = 0 | 962.13 | 1476.2 | 1.16
323.15 K, x2 = 0.1076 | 1044.13 | 1473.9 | 2.07
323.15 K, x2 = 0.2146 | 1108.64 | 1471.7 | 4.02
323.15 K, x2 = 0.3053 | 1154.38 | 1466.1 | 6.32
323.15 K, x2 = 0.3985 | 1194.44 | 1448.8 | 9.48
323.15 K, x2 = 0.4805 | 1223.3 | 1432.3 | 13.62
323.15 K, x2 = 0.5766 | 1252.31 | 1419.6 | 19.75
323.15 K, x2 = 0.6793 | 1279.23 | 1408.4 | 27.82
323.15 K, x2 = 0.7871 | 1304.56 | 1398.9 | 37.45
323.15 K, x2 = 0.9009 | 1327.88 | 1389.2 | 53.14

CNc1ccccc1 [N-methylaniline] + CCCC[n+]1ccn(C)c1.O=S(=O)([N-]S(=O)(=O)C(F)(F)F)C(F)(F)F
Details | mass density [kg/m3] | speed of sound [m/s] | viscosity [mPa·s]
298.15 K, x2 = 0 | 982.7 | 1564.5 | 1.94
298.15 K, x2 = 0.0958 | 1085.92 | 1478.4 | 3.78
298.15 K, x2 = 0.2004 | 1171.17 | 1416.5 | 7.41
298.15 K, x2 = 0.3061 | 1237.44 | 1372.1 | 10.89
298.15 K, x2 = 0.4074 | 1287.31 | 1337.5 | 15.38
298.15 K, x2 = 0.4939 | 1321.9 | 1312.1 | 19.38
298.15 K, x2 = 0.5905 | 1352.65 | 1286.8 | 23.54
298.15 K, x2 = 0.6834 | 1377.01 | 1267.9 | 28.71
298.15 K, x2 = 0.7988 | 1402.4 | 1250.4 | 35.25
298.15 K, x2 = 0.8751 | 1415.81 | 1241 | 40.87
303.15 K, x2 = 0 | 978.59 | 1546.1 | 1.73
303.15 K, x2 = 0.0958 | 1081.63 | 1462.9 | 3.32
303.15 K, x2 = 0.2004 | 1166.89 | 1402.2 | 6.34
303.15 K, x2 = 0.3061 | 1233.05 | 1358.7 | 9.2
303.15 K, x2 = 0.4074 | 1282.85 | 1324.7 | 12.87
303.15 K, x2 = 0.4939 | 1317.38 | 1299.7 | 16.31
303.15 K, x2 = 0.5905 | 1348.07 | 1275.1 | 19.68
303.15 K, x2 = 0.6834 | 1372.38 | 1256.5 | 23.79
303.15 K, x2 = 0.7988 | 1397.7 | 1239.1 | 29.03
303.15 K, x2 = 0.8751 | 1411.09 | 1229.8 | 33.45
308.15 K, x2 = 0 | 974.47 | 1528.3 | 1.55
308.15 K, x2 = 0.0958 | 1077.34 | 1447.9 | 2.93
308.15 K, x2 = 0.2004 | 1162.61 | 1388 | 5.47
308.15 K, x2 = 0.3061 | 1228.67 | 1345.4 | 7.87
308.15 K, x2 = 0.4074 | 1278.4 | 1312.1 | 10.91
308.15 K, x2 = 0.4939 | 1312.87 | 1287.6 | 13.85
308.15 K, x2 = 0.5905 | 1343.49 | 1263.3 | 16.65
308.15 K, x2 = 0.6834 | 1367.74 | 1245 | 20
308.15 K, x2 = 0.7988 | 1393.02 | 1228.1 | 24.27
308.15 K, x2 = 0.8751 | 1406.37 | 1218.9 | 27.84
313.15 K, x2 = 0 | 970.36 | 1511.5 | 1.4
313.15 K, x2 = 0.0958 | 1073.05 | 1433.7 | 2.61
313.15 K, x2 = 0.2004 | 1158.33 | 1373.8 | 4.76
313.15 K, x2 = 0.3061 | 1224.28 | 1332.5 | 6.8
313.15 K, x2 = 0.4074 | 1273.93 | 1299.9 | 9.36
313.15 K, x2 = 0.4939 | 1308.35 | 1275.7 | 11.86
313.15 K, x2 = 0.5905 | 1338.91 | 1251.8 | 14.24
313.15 K, x2 = 0.6834 | 1363.11 | 1233.8 | 17.04
313.15 K, x2 = 0.7988 | 1388.31 | 1217.1 | 20.57
313.15 K, x2 = 0.8751 | 1401.64 | 1208.1 | 23.51
318.15 K, x2 = 0 | 966.24 | 1492.8 | 1.27
318.15 K, x2 = 0.0958 | 1068.75 | 1417.6 | 2.34
318.15 K, x2 = 0.2004 | 1154.04 | 1359.9 | 4.17
318.15 K, x2 = 0.3061 | 1219.9 | 1319.4 | 5.94
318.15 K, x2 = 0.4074 | 1269.47 | 1287.4 | 8.12
318.15 K, x2 = 0.4939 | 1303.83 | 1263.6 | 10.24
318.15 K, x2 = 0.5905 | 1334.33 | 1240 | 12.3
318.15 K, x2 = 0.6834 | 1358.47 | 1222.4 | 14.69
318.15 K, x2 = 0.7988 | 1383.61 | 1206.1 | 17.64
318.15 K, x2 = 0.8751 | 1396.92 | 1197.1 | 20.12
323.15 K, x2 = 0 | 962.13 | 1476.2 | 1.16
323.15 K, x2 = 0.0958 | 1064.46 | 1403.2 | 2.11
323.15 K, x2 = 0.2004 | 1149.76 | 1346.5 | 3.68
323.15 K, x2 = 0.3061 | 1215.52 | 1306.7 | 5.23
323.15 K, x2 = 0.4074 | 1265 | 1275.5 | 7.1
323.15 K, x2 = 0.4939 | 1299.32 | 1252 | 8.9
323.15 K, x2 = 0.5905 | 1329.74 | 1228.6 | 10.72
323.15 K, x2 = 0.6834 | 1353.84 | 1211.5 | 12.79
323.15 K, x2 = 0.7988 | 1378.91 | 1195.2 | 15.29
323.15 K, x2 = 0.8751 | 1392.22 | 1186.4 | 17.41
